Entries after “also recorded” stand apart in the source; their conditions may differ.
How the values were obtained:
[1] = system: Vth instar L. oleracea larvae; assay: Insect bioassay 2A: artificial diet feeding, 3 days; type: in vivo, Lacanobia oleracea; conditions: 0.5% of dietary protein (0.5 mg/5 g diet), 3 days exposure, n=8
Method: (§1) A potato leaf based artificial diet (24) was used to assay recombinant proteins against newly moulted Vth stadium L. oleracea which were starved for 24 h prior to exposure to diets. To encourage feeding, sucrose was incorporated at 0.05% (w/w) in assays 2 A and B and at 0.5% (w/w) in assay 3. Individual larvae were maintained in clear plastic pots containing moist filter paper to prevent diet desiccation. Larval wet weights (−/+0.1 mg) were recorded before, during, and after exposure to treatments, and diet consumption was estimated on a wet weight basis. The amounts of recombinant proteins added to diets were based on activity values derived from agglutination assays.
Larvae (n=8 per treatment) were exposed for 3 days to control diet; control diet containing ammonia; diet containing native GNA at approx. 0.5% (w/w) of dietary protein: diet containing native GNA and synthetic Manse-AS at a total concentration of approx. 0.5% (w/w) (i.e. ratio of GNA: Manse-AS equivalent to FP and diet containing FP at approx. 0.5% (w/w) of dietary protein.

[2] = system: Vth stadium L. oleracea larvae; assay: Insect bioassay 1: artificial diet feeding, 24 h; type: in vivo, Lacanobia oleracea; conditions: 1.5% of dietary protein (1.5 mg/5 g diet), 24 h exposure, n=7
Method: as §1, with “assays. Larvae (n=7 per treatment) were exposed to control diet; control diet containing ammonia (0.0002 v/w); diet containing recombinant GNA at a concentration of approx. 1.5% (w/w) of dietary protein (1.5 mg/5 g diet wet weight) and diet containing recombinant FP at a concentration of approx. 1.5% (w/w) of dietary protein for 24 h.” for “assays.”

| Substance | increase/decrease in mean wet weight of larvae [1] | mean increase/decrease in weight of larvae [2] |
| --- | --- | --- |
| GNA: Galanthus nivalis agglutinin (snowdrop lectin); standard GNA obtained from Vector Laboratories | four fold increase in weight; also recorded: fourfold increase in weight | more than 50% |
| recombinant GNA: Galanthus nivalis agglutinin (snowdrop lectin), 109 residues, expressed in E. coli with N-terminal His tag, SEQ ID NO: 2 |  | more than 50% |

Source: patent US7196057B2, “Fusion proteins for insect control” (University of Durham, priority 2001, dated 2007)
